What follows are molecules tested against T1, IDO in Hela cells (Homo sapiens, UniProt P14902) (assay: Test of cellular activity (kynurenine formation in interferon γ stimulated Hela cells)). Details: head prints IPS cells, method: Hela cells, 48 h incubation, read at 480 nm.
T1 construct: endogenous in cells; host or cells: HeLa cells stimulated with human interferon γ
Format: cell-based
Procedure: (3) Test Method of Cellular Activity
Hela cells (80 μL) was inoculated on a 96-well plate (5×10^3 for each well) to grow overnight. After the compound was diluted the next day, 1 μL of diluent and 100 μL of culture medium which contains human interferon γ (final concentration: 50 ng/m) were added into the 96-well plate to make the final volume reach […]. After incubating for 48 h, 80 μL of supernate was transferred from each well to a new […]. 10 μL 6.1N trichloroacetic acid was added into each well for mixing and incubation at 50° C. for 30 min, and […] N formyl-kynurenin into kynurenine. The reaction mixture was centrifuged at 2,500 rpm for 10 min, 70 μL of supernatant of each well was transferred to a new 96-well plate and mixed with 100 μL of 2% (w/v) dimethylaminobenzaldehyde acetic acid solution. After placing for 5-10 min, measurement was carried out at 480 nm with the SPECTRAmax i13 reader.

T1 sequence (P14902 whole entry): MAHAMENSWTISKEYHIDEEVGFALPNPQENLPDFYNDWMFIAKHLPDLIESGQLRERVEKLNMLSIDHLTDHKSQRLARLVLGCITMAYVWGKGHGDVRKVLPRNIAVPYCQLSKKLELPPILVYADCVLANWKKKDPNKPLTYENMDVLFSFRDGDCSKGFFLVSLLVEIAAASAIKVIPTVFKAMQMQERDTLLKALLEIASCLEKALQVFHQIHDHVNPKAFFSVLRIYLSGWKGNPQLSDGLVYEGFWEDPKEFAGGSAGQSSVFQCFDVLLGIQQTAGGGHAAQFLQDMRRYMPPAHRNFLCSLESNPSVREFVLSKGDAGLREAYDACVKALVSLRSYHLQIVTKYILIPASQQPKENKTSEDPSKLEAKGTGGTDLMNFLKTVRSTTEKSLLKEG

SMILES	IC50
O=C(Nc1ccc(Cl)cc1)C1CCC12CCC(c1ccnc3ccc(F)cc13)CC2 (racemic) [Example 10B, (±) N-(4-chlorophenyl)-7-(6-fluoroquinolin-4-yl)spiro[3.5]nonane-1-carboxamide]	> 3 nM
O=C(Nc1ccc(F)cc1)C1CC2(CCC(c3ccnc4ccc(F)cc34)CC2)C1 (single isomer, unassigned) [Example 25, N-(4-fluorophenyl)-7-(6-fluoroquinolin-4-yl)spiro[3.5]nonane-2-carboxamide]	0.69 nM
O=C(Nc1ccc(Br)cc1)C1CC2(CCC(c3ccnc4ccc(F)cc34)CC2)C1 (single isomer, unassigned) [Example 26, N-(4-bromophenyl)-7-(6-fluoroquinoline-4-yl)spiro[3.5]nonane-2-carboxamide]	0.79 nM
O=C(Nc1ccccn1)C1CC2(CCC(c3ccnc4ccc(F)cc34)CC2)C1 (single isomer, unassigned) [Example 27]	> 10 nM
Cn1ccc(-c2ccc(NC(=O)C3CC4(CCC(c5ccnc6ccc(F)cc56)CC4)C3)cc2F)n1 (single isomer, unassigned) [Example 28, N-(3-fluoro-4-(1-methyl-1H-pyrazol-3-yl)phenyl)-7-(6-fluoroquinolin-4-yl)spiro[3.5]nonane-2-carboxamide]	> 10 nM
O=C(Nc1ccccc1Cl)C1CC2(CCC(c3ccnc4ccc(F)cc34)CC2)C1 (single isomer, unassigned) [Example 29, N-(2-chlorophenyl)-7-(6-fluoroquinolin-4-yl)spiro[3.5]nonane-2-carboxamide]	> 10 nM
O=C(Nc1ccc(Cl)cc1F)C1CC2(CCC(c3ccnc4ccc(F)cc34)CC2)C1 (single isomer, unassigned) [Example 30, N-(4-chloro-2-fluorophenyl)-7-(6-fluoroquinoline-4-yl)spiro[3.5]nonane-2-carboxamide]	2.53 nM
O=C(Nc1cccc(F)c1)C1CC2(CCC(c3ccnc4ccc(F)cc34)CC2)C1 (single isomer, unassigned) [Example 31, N-(3-fluorophenyl)-7-(6-fluoroquinoline-4-yl)spiro[3.5]nonane-2-carboxamide]	1.97 nM
O=C(Nc1cccc(Br)c1)C1CC2(CCC(c3ccnc4ccc(F)cc34)CC2)C1 (single isomer, unassigned) [Example 32, N-(3-bromophenyl)-7-(6-fluoroquinoline-4-yl)spiro[3.5]nonane-2-carboxamide]	> 10 nM
O=C(Nc1cccnc1)C1CC2(CCC(c3ccnc4ccc(F)cc34)CC2)C1 (single isomer, unassigned) [Example 33, 7-(6-fluoroquinoline-4-yl)-N-(pyridine-3-yl)spiro[3.5]nonane-2-carboxamide]	> 10 nM
O=C(Nc1ccc(Cl)c(F)c1)C1CC2(CCC(c3ccnc4ccc(F)cc34)CC2)C1 (single isomer, unassigned) [Example 34, N-(3-fluoro-4-chlorophenyl)-7-(6-fluoroquinoline-4-yl)spiro[3.5]nonane-2-carboxamide]	1.36 nM
O=C(Nc1ccc(C(F)(F)F)cc1)C1CC2(CCC(c3ccnc4ccc(F)cc34)CC2)C1 (single isomer, unassigned) [Example 35, 7-(6-fluoroquinolin-4-yl)-N-(4-(trifluoromethyl)phenyl)spiro[3.5]nonane-2-carboxamide]	6.23 nM
O=C(Nc1cccc(Cl)c1)C1CC2(CCC(c3ccnc4ccc(F)cc34)CC2)C1 (single isomer, unassigned) [Example 36, N-(3-chlorophenyl)-7-(6-fluoroquinoline-4-yl)spiro[3.5]nonane-2-carboxamide]	8.32 nM
O=C(Nc1ccc(Br)c(F)c1)C1CC2(CCC(c3ccnc4ccc(F)cc34)CC2)C1 (single isomer, unassigned) [Example 37, N-(3-fluoro-4-bromophenyl)-7-(6-fluoroquinoline-4-yl)spiro[3.5]nonane-2-carboxamide]	> 10 nM

Continued, values first:

IC50	SMILES
> 10 nM	O=C(Nc1ccc(F)c(Cl)c1)C1CC2(CCC(c3ccnc4ccc(F)cc34)CC2)C1 (single isomer, unassigned) [Example 38, N-(3-chloro-4-fluorophenyl)-7-(6-fluoroquinoline-4-yl)spiro[3.5]nonane-2-carboxamide]
3.05 nM	O=C(Nc1ccc(F)c(F)c1)C1CC2(CCC(c3ccnc4ccc(F)cc34)CC2)C1 (single isomer, unassigned) [Example 40, N-(3,4-difluorophenyl)-7-(6-fluoroquinoline-4-yl)spiro[3.5]nonane-2-carboxamide]
> 10 nM	O=C(Nc1ccccc1C(F)(F)F)C1CC2(CCC(c3ccnc4ccc(F)cc34)CC2)C1 (single isomer, unassigned) [Example 41, 7-(6-fluoroquinoline-4-yl)-N-(2-(trifluoromethyl)phenyl)spiro[3.5]nonane-2-carboxamide]
9.5 nM	O=C(Nc1ccc(Cl)cn1)C1CC2(CCC(c3ccnc4ccc(F)cc34)CC2)C1 (single isomer, unassigned) [Example 42, N-(5-chloropyridine-2-yl)-7-(6-fluoroquinoline-4-yl)spiro[3.5]nonane-2-carboxamide]
3.07 nM	O=C(Nc1ccc(-c2ccccc2)cc1)C1CC2(CCC(c3ccnc4ccc(F)cc34)CC2)C1 (single isomer, unassigned) [Example 43, N-([1,1′-biphenyl]-4-yl)-7-(6-fluoroquinolin-4-yl)spiro[3.5]nonane-2-carboxamide]
> 10 nM	O=C(Nc1cccc(-c2ccccc2)c1)C1CC2(CCC(c3ccnc4ccc(F)cc34)CC2)C1 (single isomer, unassigned) [Example 44, N-([1,1′-biphenyl]-3-yl)-7-(6-fluoroquinolin-4-yl)spiro[3.5]nonane-2-carboxamide]
> 10 nM	O=C(Nc1ccc(C(F)(F)F)c(Cl)c1)C1CC2(CCC(c3ccnc4ccc(F)cc34)CC2)C1 (single isomer, unassigned) [Example 45, N-(3-chloro-4-(trifluoromethyl)phenyl)-7-(6-fluoroquinoline-4-yl)spiro[3.5]nonane-2-carboxamide]
2.74 nM	O=C(Nc1ccccc1F)C1CC2(CCC(c3ccnc4ccc(F)cc34)CC2)C1 (single isomer, unassigned) [Example 46, N-(2-fluorophenyl)-7-(6-fluoroquinoline-4-yl)spiro[3.5]nonane-2-carboxamide]
> 10 nM	O=C(Nc1ccccc1Br)C1CC2(CCC(c3ccnc4ccc(F)cc34)CC2)C1 (single isomer, unassigned) [Example 47, N-(2-bromophenyl)-7-(6-fluoroquinoline-4-yl)spiro[3.5]nonane-2-carboxamide]
> 10 nM	O=C(Nc1ccncc1)C1CC2(CCC(c3ccnc4ccc(F)cc34)CC2)C1 (single isomer, unassigned) [Example 48]
1.32 nM	N#Cc1ccc(NC(=O)C2CC3(CCC(c4ccnc5ccc(F)cc45)CC3)C2)cc1 (single isomer, unassigned) [Example 49, N-(4-cyanophenyl)-7-(6-fluoroquinolin-4-yl)spiro[3.5]nonane-2-carboxamide]
> 10 nM	O=C(Nc1cccc(C(F)(F)F)c1)C1CC2(CCC(c3ccnc4ccc(F)cc34)CC2)C1 [Example 39, (2S,4s,7S)-7-(6-fluoroquinoline-4-yl)-N-(3-(trifluoromethyl)phenyl)spiro[3.5]nonane-2-carboxamide]

From patent US20210047290A1, “SPIRO COMPOUND AS INDOLEAMINE-2,3-DIOXYGENASE INHIBITOR” (SHANGHAI INSTITUTE OF ORGANIC CHEMISTRY, CHINESE ACADEMY OF …, priority 2018, published 2021)
